Test results as given in patent US20070037788A1, “Tricyclic steroid hormone nuclear receptor modulators” (Eli Lilly and Company, priority 2003, published 2007).
Counter-ions that a name gives are not always drawn.

Target: T1, human MR (Homo sapiens, UniProt P08235)
T1 construct: The full length human MR gene is cloned from a human kidney or human brain cDNA library; made in house; host or cells: SF9 insect cells (baculovirus)
T1 sequence (P08235 1-984): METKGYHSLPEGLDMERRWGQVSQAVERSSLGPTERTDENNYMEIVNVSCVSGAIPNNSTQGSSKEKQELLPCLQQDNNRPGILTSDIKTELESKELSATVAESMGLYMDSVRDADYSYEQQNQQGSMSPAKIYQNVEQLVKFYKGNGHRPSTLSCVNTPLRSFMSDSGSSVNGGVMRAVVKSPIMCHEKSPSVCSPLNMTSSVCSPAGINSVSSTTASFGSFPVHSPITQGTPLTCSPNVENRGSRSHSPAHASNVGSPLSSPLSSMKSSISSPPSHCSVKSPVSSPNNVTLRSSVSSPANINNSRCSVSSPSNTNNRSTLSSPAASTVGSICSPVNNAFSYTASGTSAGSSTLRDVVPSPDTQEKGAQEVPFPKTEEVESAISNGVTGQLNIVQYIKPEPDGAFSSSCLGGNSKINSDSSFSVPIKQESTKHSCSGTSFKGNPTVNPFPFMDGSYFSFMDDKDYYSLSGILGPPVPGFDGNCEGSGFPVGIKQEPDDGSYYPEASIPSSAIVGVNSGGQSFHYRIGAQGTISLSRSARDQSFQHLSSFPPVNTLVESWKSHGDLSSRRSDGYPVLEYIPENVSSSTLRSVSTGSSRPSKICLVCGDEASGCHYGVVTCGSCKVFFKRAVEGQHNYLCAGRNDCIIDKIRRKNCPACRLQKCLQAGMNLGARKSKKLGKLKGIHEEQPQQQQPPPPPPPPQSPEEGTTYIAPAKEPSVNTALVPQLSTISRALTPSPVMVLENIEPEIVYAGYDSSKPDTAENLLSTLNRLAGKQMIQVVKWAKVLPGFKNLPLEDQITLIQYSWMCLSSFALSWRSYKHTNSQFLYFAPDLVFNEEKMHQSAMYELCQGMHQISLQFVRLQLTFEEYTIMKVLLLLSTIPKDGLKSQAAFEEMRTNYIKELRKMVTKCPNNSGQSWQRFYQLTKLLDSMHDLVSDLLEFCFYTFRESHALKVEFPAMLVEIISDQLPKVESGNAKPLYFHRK
Experiment: Mineralocorticoid Receptor Binding Assay (Method 1)
Conditions: [3H]-aldosterone
Procedure: The full length human MR gene is cloned from a human kidney or human brain cDNA library. Briefly, using synthetic oligonucleotide primers (Eli Lilly and Company, Indianapolis) directed to nucleotides 20-54 and 3700-3666 of the human MR, polymerase chain reaction (PCR) is performed under standard conditions using a human cDNA library. The PCR reaction is performed in a final volume of 50 μl containing about 1 μl of a 50× stock solution of polymerase; about 1 μl of a 50× stock solution of DNTP; about 5 μl of an appropriate PCR buffer; about 1 μl of each primer; about 5 μl of a H. kidney or H. brain cDNA library; and about 36 μl of water. The reaction is allowed to denature for about 30 seconds at 95 degrees Celsius, anneal for about 30 seconds at 55 degrees Celsius, and extend for about 5 minutes at 72 degrees Celsius, the sequence being repeated for a total of about 35 cycles. The desired PCR product (3.68 Kb) is confirmed by gel electrophoresis and subsequently cut from the gel and stored at about −20 degrees Celsius until extraction. To extract the cDNA product from the agarose gel, the QIAEX II Gel Extraction protocol (QIAGEN, Inc.) is employed according to the manufacturer's instructions. Following extraction, the MR cDNA is cloned into an appropriate cloning vector (Zero Blunt TOPO PCR Cloning Kit (Invitrogen, Inc.) and a pAcHLT-baculovirus transfer vector (B.D./Pharminogen), then expressed in SF9 insect cells, essentially according to manufacturer's instructions. Sf9 cells are grown at a scale where gram quantity cell pellets are obtained for subsequent use in the MR binding assay. Harvested cell pellets are lysed by repeated freeze-thaw cycles (about 4) in a suitable lysis buffer then centrifuged at about 1×10^3 G (with the supernatant being saved for future assays).
MR binding assays are performed in a final total volume of about 250 μl containing about 20-25 μg of protein and 0.5 nM of [^3H]-aldosterone plus varying concentrations of test compound or vehicle. The assay binding buffer consists of 30 mM sodium molybdate, 30 mM of TRIS-HCl, 5 mM sodium phosphate, 5 mM sodium pyrophosphate, and about 10% glycerol, pH=7.5.
Briefly, assays are prepared at RT in 96-well Falcon 3072 plates, each well containing 210 μl of binding buffer, 10 μl of [^3H]-aldosterone, 10 μl of test compound/vehicle, and 20 μl of the resuspended receptor protein extract. Incubations are carried out at 4 degrees Celsius with shaking for about 16 hours. 200 μl aliquots of each incubation are filtered onto Millipore HA 0.45 micron 96-well filter plates, pre-moistened with cold 30 mM TRIS-HCl. The filter plates are suctioned dry with vacuum and immediately washed 3× with cold 30 mM TRIS-HCl. The plates are then punched out and the amount of receptor-ligand complex is determined by liquid scintillation counting using 4 ml of Ready Protein Plus™ liquid scintillation cocktail.

Ki, < 500 nM:
CC(C)(CN1CCOCC1)n1c(=O)[nH]c2cc(/C=C3\c4ccccc4COc4cc(F)ccc43)ccc21 [Example 1, 1-(1,1-Dimethyl-2-morpholin-4-yl-ethyl)-5-(3-fluoro-6H-dibenzo[b,e]oxepin-11-ylidenemethyl)-1,3-dihydro-benzoimidazol-2-one, E isomer]
CN1CCC(n2c(=O)[nH]c3cc(/C=C4/c5ccc(F)cc5OCc5c(F)cccc54)ccc32)CC1 [Example 2, 5-(3,7-Difluoro-6H-dibenzo[b,e]oxepine-11-ylidenemethyl)-1-(1-methyl-piperidin-4-yl)-1,3-dihydro-benzoimidazol-2-one, E-isomer]
CN1CCC(n2c(=O)[nH]c3cc(/C=C4\c5ccccc5COc5cc(F)ccc54)ccc32)CC1 [Example 3, 5-(3-Fluoro-6H-dibenzo[b,e]oxepin-11-ylidenemethyl)-1-(1-methyl-piperidin-4-yl)-1,3-dihydro-benzoimidazol-2-one, E isomer]
CN1CCC(n2c(=O)[nH]c3cc(/C=C4\c5ccc(F)cc5COc5cc(F)ccc54)ccc32)CC1 [Example 4, 5-(3,8-Difluoro-6H-dibenzo[b,e]oxepin-11-ylidenemethyl)-1-(1-methyl-piperidin-4-yl) -1,3-dihydro-benzoimidazol-2-one, E isomer]
CCN1CC[C@@H](n2c(=O)[nH]c3cc(/C=C4\c5ccc(F)cc5COc5cc(F)ccc54)ccc32)C1 [Example 5, 5-(3,8-Difluoro-6H-dibenzo[b,e]oxepin-11-ylidenemethyl)-1-(1-ethyl-pyrrolidin-3-yl) -1,3-dihydro-benzoimidazol-2-one, HOAc salt, E isomer, chiral]
CN1CCN(CCCn2c(=O)[nH]c3cc(/C=C4\c5ccccc5COc5cc(F)ccc54)ccc32)CC1 [Example 7]
CN1CCN(CCn2c(=O)[nH]c3cc(/C=C4\c5ccccc5COc5cc(F)ccc54)ccc32)CC1 [Example 8]
O=c1[nH]c2cc(/C=C3\c4ccccc4COc4cc(F)ccc43)ccc2n1[C@H]1CCNC1 [Example 9]
C[C@H](CN1CCOCC1)n1c(=O)[nH]c2cc(/C=C3\c4ccccc4COc4cc(F)ccc43)ccc21 [Example 10]
C[C@@H](CN1CCOCC1)n1c(=O)[nH]c2cc(/C=C3\c4ccccc4COc4cc(F)ccc43)ccc21 [Example 11]
O=c1[nH]c2cc(/C=C3\c4ccccc4COc4cc(F)ccc43)ccc2n1C1CCNCC1 [Example 12]
C[C@@H]1CN(CCn2c(=O)[nH]c3cc(/C=C4\c5ccccc5COc5cc(F)ccc54)ccc32)C[C@H](C)O1 [Example 13]
O=c1[nH]c2cc(/C=C3\c4ccccc4COc4cc(F)ccc43)ccc2n1CCN1CCNCC1 [Example 14]
O=c1[nH]c2cc(/C=C3\c4ccccc4COc4cc(F)ccc43)ccc2n1C1CCNC1 (centres unmarked) [Example 15]
O=c1[nH]c2cc(/C=C3\c4ccccc4COc4cc(F)ccc43)ccc2n1C1CCNC1 (centres unmarked) [Example 16]
O=c1[nH]c2cc(/C=C3\c4ccccc4COc4cc(F)ccc43)ccc2n1C1CNC1 [Example 17]
O=c1[nH]c2cc(/C=C3\c4ccccc4COc4cc(F)ccc43)ccc2n1C[C@@H]1CCCN1 [Example 18]
O=c1[nH]c2cc(/C=C3\c4ccccc4COc4cc(F)ccc43)ccc2n1C[C@H]1CCCN1 [Example 19]
CN1CCN(CCn2c(=O)[nH]c3cc(/C=C4\c5ccc(F)cc5COc5cc(F)ccc54)ccc32)CC1 [Example 20]
O=c1[nH]c2cc(/C=C3\c4ccc(F)cc4COc4cc(F)ccc43)ccc2n1CCN1CCCC1 [Example 21]
C[C@H](CN1CCOCC1)n1c(=O)[nH]c2cc(/C=C3\c4ccc(F)cc4COc4cc(F)ccc43)ccc21 [Example 22]
C[C@@H](CN1CCOCC1)n1c(=O)[nH]c2cc(/C=C3\c4ccc(F)cc4COc4cc(F)ccc43)ccc21 [Example 23]
CC(C)(CN1CCOCC1)n1c(=O)[nH]c2cc(/C=C3\c4ccc(F)cc4COc4cc(F)ccc43)ccc21 [Example 24]
C[C@@H]1CN(CCn2c(=O)[nH]c3cc(/C=C4\c5ccc(F)cc5COc5cc(F)ccc54)ccc32)C[C@H](C)O1 [Example 25]
O=c1[nH]c2cc(/C=C3\c4ccc(F)cc4COc4cc(F)ccc43)ccc2n1CCCN1CCOCC1 [Example 26]
O=c1[nH]c2cc(/C=C3\c4ccc(F)cc4COc4cc(F)ccc43)ccc2n1C1CCNCC1 [Example 28]
O=c1[nH]c2cc(/C=C3\c4ccc(F)cc4COc4cc(F)ccc43)ccc2n1[C@H]1CCNC1 [Example 29]
O=c1[nH]c2cc(/C=C3\c4ccc(F)cc4COc4cc(F)ccc43)ccc2n1C1CNC1 [Example 30]
O=c1[nH]c2cc(/C=C3\c4ccc(F)cc4COc4cc(F)ccc43)ccc2n1[C@@H]1CCNC1 [Example 31]
CN1CC[C@H](n2c(=O)[nH]c3cc(/C=C4\c5ccc(F)cc5COc5cc(F)ccc54)ccc32)C1 [Example 32]
CCN1CC[C@H](n2c(=O)[nH]c3cc(/C=C4\c5ccc(F)cc5COc5cc(F)ccc54)ccc32)C1 [Example 33]
CN1CCN(CCn2c(=O)[nH]c3cc(/C=C4/c5ccc(F)cc5OCc5c(F)cccc54)ccc32)CC1 [Example 34]
O=c1[nH]c2cc(/C=C3/c4ccc(F)cc4OCc4c(F)cccc43)ccc2n1CCN1CCCC1 [Example 35]
O=c1[nH]c2cc(/C=C3/c4ccc(F)cc4OCc4c(F)cccc43)ccc2n1C1CCNCC1 [Example 36]
O=c1[nH]c2cc(/C=C3/c4ccc(F)cc4OCc4c(F)cccc43)ccc2n1[C@H]1CCNC1 [Example 37]
C[C@H](CN1CCOCC1)n1c(=O)[nH]c2cc(/C=C3/c4ccc(F)cc4OCc4c(F)cccc43)ccc21 [Example 38]
C[C@@H](CN1CCOCC1)n1c(=O)[nH]c2cc(/C=C3/c4ccc(F)cc4OCc4c(F)cccc43)ccc21 [Example 39]
CC(C)(CN1CCOCC1)n1c(=O)[nH]c2cc(/C=C3/c4ccc(F)cc4OCc4c(F)cccc43)ccc21 [Example 40]
C[C@@H]1CN(CCn2c(=O)[nH]c3cc(/C=C4/c5ccc(F)cc5OCc5c(F)cccc54)ccc32)C[C@H](C)O1 [Example 41]
O=c1[nH]c2cc(/C=C3/c4ccc(F)cc4OCc4c(F)cccc43)ccc2n1CCCN1CCOCC1 [Example 42]
O=c1[nH]c2cc(/C=C3/c4ccc(F)cc4OCc4c(F)cccc43)ccc2n1CCN1CCNCC1 [Example 43]
